The results in this text go back to PubChem BioAssay (NCI).

Structures are written as SMILES. Where “and” joins values, the source holds several entries; their conditions need not be identical. Equal entries are not always repeated.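 Method: 48-hour compound exposure of cells in 96-well plates, five concentrations, linear interpolation of endpoints. Abbreviation: GI50, concentration required for 50% inhibition of growth. At the TGI there is no net growth.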

Holding throughout (assay): inhibition of tumour cell growth, NCI panel, 48 h
The subject of experiment [1] is DMS 273 small cell lung.
For experiment [2], the system named is HCT-15 colon.
Experiment [3] deals with HOP-18 NSCLC.
Experiment [4] deals with M19-MEL melanoma.
Experiment [5] has as its system XF 498 CNS.
In experiment [6] the test system is SNB-78 CNS.
The subject of experiment [7] is BT-549 breast.
Experiment [8] deals with MDA-MB-231 breast.
Experiment [9] concerns NCI/ADR-RES ovarian.
The test system of experiment [10] is T-47D breast.

With `Cc1cc(Br)cc(C)c1NC(=O)C(=O)C(C(=O)c1ccc2ccccc2c1)C1OC(=O)c2ccccc21` (configuration not stated), the TGI in [1] turned out to be 86 µM; in [2], 42.3 µM; in [3], 41.3 µM; in experiment [4], 46.3 µM; in experiment [5], 18 µM.

`O=C(O/N=C1/CCCC/C1=C\c1ccccc1)c1ccccc1`: the TGI in [1], in experiment [2], in [3], in [4] and in experiment [5] was greater than 100 µM in each case.

For the molecule `CC1=CC(/C=C(\C)CCCc2ccoc2)C2(OC(=O)C(C)=C2O)[C@H]2C1CC[C@@H]2C` (some centres not stated), the TGI in experiment [2] amounted to 39.8 µM; in experiment [3] it was 82.6 µM; in [4] it was 90.6 µM; in [6], 85.2 µM.

On to `CCCCN(CCCC)CC(C(=O)Nc1ccc([N+](=O)[O-])cc1[N+](=O)[O-])/C(C)=N\NC(=S)NN` (configuration not stated), for which the TGI in experiment [1], in experiment [4] and in experiment [5] was greater than 100 µM throughout.

Regarding `O=C1CN=C(C[N+](=O)[O-])c2ccccc21`, the TGI in experiment [1], in [2], in experiment [3] and in [6] was greater than 100 µM in each case.

For the molecule `CCCCOC(=O)C1C(c2ccc(Cl)cc2)NC(c2ccc(Cl)cc2)C(C(=O)OCCCC)S1(=O)=O` (configuration not stated), the TGI in experiment [1], in experiment [2], in experiment [3], in experiment [4] and in [5] was greater than 100 µM in each case.

For the molecule `COc1ccc(NC(=O)CCc2cc(-c3ccc(O)c(OC)c3)nc(NC#N)n2)cc1`, the TGI in experiment [2], in experiment [3], in experiment [4] and in experiment [6] was greater than 100 µM throughout.

Turning to `CC(=O)O.CC(=O)O.CC(=O)O.CC(=O)O.CC(=O)O.CC(=O)O.O.[Ti].[Ti]`, the GI50 in experiment [1], in [2], in experiment [3] and in experiment [6] was greater than 100 µM each time. Also, the TGI in experiment [1], in experiment [2], in experiment [3] and in experiment [6] was greater than 100 µM in each case.

Take `O=[n+]1c2c(n([O-])c3ccccc31)CCCCCCCCCC2`: the TGI in experiment [1], in experiment [2], in [4], in [6] and in experiment [5] was greater than 100 µM in each case.

For `Cc1ccccc1N1C(=O)/C(=C/c2ccc(N(CCC#N)CCC#N)cc2)N=C1c1cc([N+](=O)[O-])ccc1Cl`, the TGI in [1], in [2], in [3] and in experiment [6] was greater than 100 µM in each case.

As to `C=C(C=O)[C@@H]1C2OC(=O)C(=C)[C@@H]2CC(O)[C@@]1(C)CC` (some centres not stated), the TGI is 24.7 µM in experiment [2], 41.3 µM in [3], 14.3 µM in [4] and 24.9 µM in experiment [6].

`COc1ccc(OC)c(NC(=O)C(=O)NNC(=O)c2sc(NNC(C)=O)nc2C)c1`: the TGI in experiment [2] was greater than 100 µM; in experiment [4] it was greater than 100 µM; in experiment [6], greater than 100 µM; in experiment [5] it was 85.3 µM.

In the case of `CC/C(=C(/c1ccc(OCCN(C)C)cc1)c1ccc(OC(=O)CCCCC(=O)c2c(C)[nH]c(/C=C3\N=C(c4ccc[nH]4)C=C3OC)c2C)cc1)c1ccccc1`, the GI50 in experiment [7] is 3.57 µM; in [2], 4.44 µM; in [8], 1.99 µM; in [9], 12.6 µM; in [10] it was 1.37 µM. The TGI in experiment [7] is 17 µM; in experiment [2], 28.5 µM; in experiment [8], 11.4 µM; in [9], 46.8 µM; in [10], 6.02 µM.

Consider `CSc1nc2c(nc(C)c(=O)n2C2OCC(OC(C)=O)C(OC(C)=O)C2OC(C)=O)c(=O)[nH]1` (configuration not stated), for which the TGI in experiment [1], in [2], in [4] and in [5] was greater than 100 µM throughout.

With `COc1cc(Nc2cn[nH]c2-c2ccc(Cl)cc2)cc(OC)c1OC`, the GI50 in [7] is 3.37 µM; in experiment [2], 4.35 µM; in experiment [8], 6.79 µM; in experiment [9] it was 4.42 µM; in experiment [10], 4.56 µM. Also, the TGI is 19.2 µM in experiment [7]; 50 µM in experiment [2]; greater than 90.3 µM in [8]; greater than 36.8 µM in experiment [9]; 56 µM in [10].

Turning to `Cn1cc(C2=C(c3ccc4ccccc4c3)C(=O)NC2=O)c2ccccc21`, the GI50 is greater than 25 µM in experiment [7]; 6.27 µM in experiment [2]; greater than 25 µM in experiment [8]; greater than 23.9 µM in [9]; greater than 25 µM in experiment [10]. For the same molecule, the TGI in experiment [7], in experiment [2], in experiment [8], in experiment [9] and in experiment [10] was greater than 25 µM throughout.

With `C#Cc1cccc(Nc2ncnc3cc(OC)c(OCCCCCCC(=O)NO)cc23)c1`, the GI50 is 0.783 µM in [7]; 1.17 µM in experiment [2]; 0.274 µM in [8]; 0.917 µM in [9]; 0.0465 µM in experiment [10]. Moreover, the TGI was found to be 5.69 µM in [7]; 6.1 µM in [2]; 2.29 µM in experiment [8]; 6.91 µM in [9]; 0.495 µM in experiment [10].

Consider `O=C1NC(=Nc2ccccc2)S/C1=C\c1ccc2ncccc2c1`, for which the GI50 in [7] was greater than 25 µM; in [2], 1.1 µM; in experiment [8], greater than 25 µM; in [9], greater than 6.88 µM; in experiment [10], 12.3 µM. In addition, the TGI in experiment [7], in experiment [2], in [8], in experiment [9] and in experiment [10] was greater than 25 µM each time.

Take `CCC[CH2][Sn]([CH2]CCC)([CH2]CCC)[O]C(=O)CC`: the GI50 is 0.15 µM in [7]; 0.156 µM in experiment [2]; 0.144 µM in [8]; 0.37 µM in experiment [9]; 0.166 µM in experiment [10]. Further, the TGI in experiment [7] was 0.344 µM; in [2], 0.409 µM; in experiment [8], 0.343 µM; in experiment [9], greater than 100 µM; in experiment [10] it was 0.385 µM.

On to `Cc1ccc(SC(C)/C=C/NNC2=NC(c3ccccc3)C(c3ccccc3)=NN2)cc1` (configuration not stated), for which the TGI in experiment [1], in [2], in experiment [3], in experiment [4] and in [6] was greater than 100 µM in each case.

Take `O=S(=O)(Nc1cc(F)cc(Cl)c1)c1ccc(-c2cnc(C3CC3)o2)cc1`: the GI50 in experiment [7] is 0.933 µM; in [2] it was 0.529 µM; in experiment [8], 4.14 µM; in [9], 1.08 µM; in experiment [10] it was 1.7 µM. Also, the TGI in experiment [7] came out at 18.8 µM; in [2], 17 µM; in [8], 19.3 µM; in experiment [9], 15.5 µM; in experiment [10], 33.5 µM.

With `COCCOc1cc(F)c2c(Nc3ccc(NC(=O)Cn4cc(C(C)C)nn4)cc3)ncnc2c1`, the GI50 in experiment [7] was 33.6 µM; in [2], greater than 100 µM; in experiment [8] it was 41.6 µM; in experiment [9], greater than 100 µM; in experiment [10], 8.11 µM. The TGI in experiment [7], in experiment [2], in experiment [8], in experiment [9] and in experiment [10] was greater than 100 µM each time.

Regarding `CCOP(=O)(Cc1ccc(CP(=O)(OCC)OCC)n1C)OCC`, the TGI in experiment [1], in experiment [2], in experiment [3] and in experiment [4] was greater than 100 µM in each case.

Turning to `Oc1[nH]c2ccccc2c1N=Nc1ccccc1Cl`, the TGI in experiment [7] is greater than 100 µM; in experiment [2], greater than 100 µM; in [8], 41.6 µM; in [9], greater than 100 µM; in experiment [10], greater than 100 µM.

In the case of `Ic1ccc(Nc2nc3nonc3nc2Nc2ccc(I)cc2)cc1`, the GI50 in experiment [7] is 0.301 µM; in experiment [2], 0.144 µM; in experiment [8] it was 0.209 µM; in experiment [9], 0.313 µM; in experiment [10], 0.179 µM. For the same molecule, the TGI in experiment [7] was 1.36 µM; in experiment [2], greater than 100 µM; in experiment [8], 0.641 µM; in experiment [9], greater than 100 µM; in [10] it was greater than 91.1 µM.

In the case of `O=c1n(CC2CO2)c(=O)n(CC2CO2)c(=O)n1CC1CO1` (configuration not stated), the GI50 in experiment [7] was 13.6 µM; in experiment [2], 13.1 µM and 25.7 µM and 11.9 µM; in [8], 35.1 µM and 52.4 µM; in [9], 16.3 µM and 11.7 µM; in experiment [10], 7.66 µM and 10 µM. In addition, the TGI in experiment [7] was 67 µM and > 100 µM; in experiment [1] it was 51.4 µM; in [2], 78.3 µM and 90.6 µM and > 100 µM; in experiment [3] it was 202 µM; in [4], 113 µM; in experiment [8] it was 84.8 µM and > 100 µM. In addition, the TGI was 237 µM and > 100 µM in experiment [9]; 199 µM in experiment [6]; 70.3 µM and > 100 µM in [10].

As to `CC(=O)OC1Oc2ccccc2-c2oc(=O)c(-c3cc(=O)oc4cc(O)ccc34)cc21` (configuration not stated), the GI50 in [7] was 15.3 µM; in experiment [2] it was 21.3 µM; in [8] it was 24.9 µM; in [9] it was 18.1 µM; in [10] it was 12.1 µM. Further, the TGI in [7] was 41.4 µM; in [2], 96.4 µM; in experiment [8], 81.5 µM; in experiment [9], 44.6 µM; in experiment [10], 48.4 µM.

Consider `CC(SC(C)C(=O)N/N=C/c1cccc(Cl)c1)C(=O)N/N=C\c1cccc(Cl)c1` (configuration not stated), for which the GI50 in experiment [7] is 18.2 µM; in experiment [2], 32.3 µM; in experiment [8], 5.87 µM; in experiment [9], 71.7 µM; in experiment [10], 23 µM. Further, the TGI in experiment [7] is 41.6 µM; in experiment [2], greater than 100 µM; in experiment [8] it was 28.8 µM; in experiment [9], greater than 100 µM; in [10] it was 93.8 µM.

In the case of `Cc1c2cccnc2c(C)c2c1c1cc(CO)ccc1n2C`, the GI50 in experiment [7] was 3.42 µM; in experiment [2], 2 µM; in experiment [8] it was 2.61 µM; in experiment [9], 1.3 µM; in experiment [10] it was 0.989 µM. For the same molecule, the TGI in experiment [7] stood at 20.1 µM; in [2], 15.4 µM; in [8], 13.2 µM; in [9], 8.51 µM; in [10], 4.97 µM.

Take `CC(C)(C)OC(=O)NCC(=O)OCc1ccccc1`: the TGI in experiment [1], in experiment [2], in experiment [4], in [6] and in [5] was greater than 100 µM in each case.

For the molecule `Cc1nnc(S(=O)(=O)c2ccc(N=Nc3c(N)nc(N)nc3N)cc2)s1`, the TGI in experiment [7], in [2], in experiment [8], in [9] and in experiment [10] was greater than 100 µM throughout.

On to `CC(C)(C)C(=O)OCOP(=O)(OCOC(=O)C(C)(C)C)C1CCCN(O)C1=O` (configuration not stated), for which the GI50 was 0.313 µM in experiment [7]; 0.675 µM in [2]; 0.397 µM in experiment [8]; 0.434 µM in [9]; 0.543 µM in experiment [10]. Besides, the TGI was 1.26 µM in [7]; 14.8 µM in experiment [2]; 20 µM in experiment [8]; 3.55 µM in [9]; 17.8 µM in experiment [10].

With `CCN1CCN(c2ccc(Nc3cc(N(C)C(=O)Nc4c(Cl)c(OC)cc(OC)c4Cl)ncn3)cc2)CC1`, the GI50 in experiment [7] was 1.04 µM; in [2] it was 1.87 µM; in experiment [8], 1.99 µM; in experiment [9], 3.7 µM; in [10] it was 2.51 µM. In addition, the TGI in experiment [7] was 21.1 µM; in experiment [2] it was 8.94 µM; in experiment [8] it was 4.15 µM; in experiment [9] it was greater than 64.5 µM; in [10], 6.49 µM.
